Measurements: US10912821B2, “Diketopiperazine salts for drug delivery and related methods” (MannKind Corporation, priority 2004, dated 2021)
“And” between values parts separate entries of the source, which are not always exact repeats. Identical values can stand only once.

What was measured:
[1] = system: cell membranes or tight junctions; format: cell-based
From the text: Diketopiperazine facilitate transcellular transport of biologically active agents across biological tissues however they are not penetration enhancers. Penetration enhancers are compounds that improve drug movement across biological tissues by disrupting cell membranes. Examples of penetration enhancers are surfactants and soaps. […] Diketopiperazine/insulin powder compositions are soluble at the physiological pH of the lung surface and dissolve rapidly after inhalation. Once dissolved, the DKP facilitates passive transcellular transport of the insulin.

[2] = Laser diffraction particle size analysis; format: physicochemical
From the text: The microparticles described in Examples 6 and 7 were subjected to laser diffraction particle size analysis (SympatecGmbH, Germany) (FIGS. 1A and 1B).

| SMILES | cell viability [1] | disruption of cell membranes or tight junctions [1] | Fine Particle Fraction (<5.8 μm) [2] | Particle Size 0.5-5 μm [2] | Particle Size <3 μm [2] | VMD (volume median diameter) [2] | X10 [2] | X16 [2] | X50 [2] | X84 [2] | X90 [2] | X99 [2] |
| --- | --- | --- | --- | --- | --- | --- | --- | --- | --- | --- | --- | --- |
| O=C(O)/C=C/C(=O)NCCCCC1NC(=O)C(CCCCNC(=O)/C=C/C(=O)O)NC1=O (stereo not drawn) [FDKP, 3,6-di(fumaryl-4-aminobutyl)-2,5-diketopiperazine] | does not compromise cell viability | does not disrupt cell membranes or tight junctions |  |  |  |  |  |  |  |  |  |  |
| O=C([O-])C=CC(=O)NCCCCC1NC(=O)C(CCCCNC(=O)C=CC(=O)[O-])NC1=O.[Na+].[Na+] (stereo not drawn) [Preparation A] |  |  | 91.46% and 86.01% | 87.91% and 80.13% | 53.39% and 47.37% | 3.70 μm and 3.76 μm | 1.60 μm and 1.55 μm | 1.44 μm and 1.36 μm | 2.89 μm and 3.11 μm | 4.60 μm and 5.53 μm | 5.47 μm and 6.64 μm | 19.20 μm and 14.04 μm |
